Test results as given in patent publication US8648091B2, “Dihydroquinolinones as ectoparasiticides” (Novartis AG, priority 2007, dated 2014).

Experiments:
[1] = system: Rhipicephalus sanguineus nymphs; assay: In-vivo test against Rhipicephalus sanguineus nymphs on Mongolian gerbils; set-up: species or system Mongolian gerbils (Meriones unguiculatus); settings: spray (or spot-on) application, tick number reduction vs placebo, Abbot's formula
Method: 4. In-Vivo Test Against Rhipicephalus sanguineus Nymphs on Mongolian Gerbils (Meriones unguiculatus) On day 0, gerbils are treated with the test compound at a given dose by spray (or spot-on) application. On day +1 (+2), the animals are infested with nymphs of Rhipicephalus. sanguineus. Ticks are left on the animals until full repletion. Seven days after infestation nymphs dropped off fully engorged are collected and counted. They are kept until molting to also evaluate growth regulating activity of the test compound. Efficacy in killing (and growth regulating) is expressed as a tick number (and molted tick number) reduction in comparison with a placebo treated group, using the Abbot's formula.

[2] = system: Ctenocephalides felis (cat flea); assay: Activity in vitro against Ctenocephalides felis (cat flea), artificial feeding system; settings: fleas fed on treated blood for 24 hours, dead fleas
Method: 1. Activity In Vitro Against Ctenocephalides felis (Cat Flea). A mixed adult population of fleas is placed in a suitably formatted 96-well plate allowing fleas to access and feed on treated blood via an artificial feeding system. Each compound is tested by serial dilution in order to determine its minimal effective dose (MED). Fleas are fed on treated blood for 24 hours, after which the compound's effect is recorded. Insecticidal activity is determined on the basis of the number of dead fleas recovered from the feeding system.

[3] = system: Dermacentor variabilis; assay: Activity in vitro against ticks, microplate pre-coated with test compound; settings: at 10 ppm; percentage of dead ticks compared to untreated controls
Method: (§1) 2. Activity In Vitro Against Ticks 5-10 ticks of different species (i.e. Rhipicephalus sanguineus, Dermacentor spp., etc.) are distributed into a microplate pre-coated with test compound. Each compound is tested by serial dilution in order to determine its Minimal Effective Dose (MED). The microplates are then incubated at 28° C. and 80% humidity until evaluation. At different time points, ticks are excited by carbon dioxide flush and/or heat. […] If the ticks fail to respond to the stimulation, they are considered dead and the compound is scored as active at the tested concentration. Activity is calculated as a percentage of dead ticks compared to untreated controls.

[4] = system: Rhipicephalus sanguineus; assay: as above; settings: at 10 ppm; percentage of dead ticks compared to untreated controls
Method: as §1

[5] = system: Amblyomma variegatum; assay: as above; settings: at 32 ppm; percentage of dead ticks compared to untreated controls
Method: as §1

[6] = system: Ixodes ricinus; assay: In-vivo test against ticks (Ixodes ricinus) on cats; settings: 25 mg/kg spray (1% solution in Polypropylenglycol), vs placebo, Abbot's formula
Method: 6. In-Vivo Test Against Ticks (Ixodes ricinus) on Cats
(§2) Cats are separated into one treatment and one control group (4 cats per group). On day 0, the cats are treated with the test compound at a dose of 25 mg/kg (1% solution in Polypropylenglycol) by spray application. On day +1, the animals are infested with unfed adult ticks (sex ratio 1:1). Evaluation of efficacy is performed at 48 h, and then weekly 48 h after reinfestation with ticks by counting the numbers of dead and live ticks recovered from the animals. Efficacy is expressed as comparison with a placebo treated group using the Abbot's formula. Infestation can be repeated at weekly intervals until efficacy drops.

[7] = system: Dermanyssus gallinae; assay: Activity in vitro against Dermanyssus gallinae; settings: at 63 ppm; 10 minutes contact, incubated 5 days
Method: 3. Activity In Vitro Against Dermanyssus gallinae A clean female mite population is used to seed a suitably formatted 96-well plate containing the test substances to be evaluated for antiparasitic activity. Each compound is tested by serial dilution in order to determine its Minimal Effective Dose (MED). Mites are left in contact with the test compound for 10 minutes and are then incubated at 25° C. and 60% relative humidity (RH) for 5 days, during which the test compound's effect is monitored. Acaricidal activity is confirmed if mites are dead without having laid eggs. Egg-laying and ensuing mite development are also recorded to identify possible growth-regulating activity.

[8] = system: Rhipicephalus sanguineus; assay: In-vivo test against ticks (Rhipicephalus sanguineus) on dogs; set-up: species or system Dogs of the beagle breed; settings: for six weeks; 25 mg/kg spot-on (15% solution in Transcutol); weekly reinfestation; vs placebo, Abbot's formula
Method: as §2, with “5. In-Vivo Test Against Ticks (Rhipicephalus sanguineus) on Dogs Dogs of the beagle breed” for “Cats”, “dogs” for “cats”, “(15%” for “(1%”, “Transcutol)” for “Polypropylenglycol)”, “spot-on application (between the shoulder blades).” for “spray application.”

## C=C(C)C1CCC(C)(/C=C/c2ccc3c(c2O)C(O)(c2ccc(OC)cc2)C(OC)C(=O)N3)O1 (stereo not drawn) [compound No. 8]
[1]; at 10 ppm
  mean efficacy: 60%
[2]; at 100 ppm
  mean efficacy: 90%

## COc1ccc(C2(O)c3c(ccc(/C=C/C4(C)CCC(C(C)(C)O)O4)c3O)NC(=O)C2OC)cc1 (stereo not drawn) [compound No. 9]
[2]; at 63 ppm
  mean efficacy: 70%

## COc1ccc(C2(O)c3c(ccc(/C=C/C4(C)CCC(C)(C)CO4)c3O)NC(=O)C2OC)cc1 (stereo not drawn) [compound No. 11]
[1]; at 3.2 ppm
  mean efficacy: 95%
[3]
  mean efficacy: 100%
[4]
  mean efficacy: 100%
[5]
  mean efficacy: 90%
[6]; after one week
  activity: 95%
[6]; after two weeks
  activity: 70%
[2]; at 32 ppm
  mean efficacy: 95%
[7]
  mean efficacy: 90%
[8]
  activity: above 90%
